# From the RepoRT retention time repository (doi:10.1021/acs.analchem.2c02893)
# Experiment: RP, Thermo Scientific Acclaim RSLC 120 C18, 100 × 2.1 mm, 2.2 µm, 30 °C, 0.2 mL/min, estimated dead time 1.1 min; A: 90% water + 10% methanol + 0.01% formic acid + 5 mM ammonium formate, pH 3.61; B: methanol + 0.01% formic acid + 5 mM ammonium formate, pH 3.61; gradient (min/%B) 0/1 1/1 2/39 13/99.9 15/99.9 15.1/1 20.1/1
# Conditions: stereoisomer not certain
row,LC retention time [min],Structure (SMILES)
1,2.53,Nc1nc(=S)c2[nH]cnc2[nH]1 [Thioguanine]
2,9.61,CC(=O)OCCN1CCN(CCCN2c3ccccc3Sc3ccc(Cl)cc32)CC1 [Thiopropazate]
3,8.15,CN1CCN(CCCN2c3ccccc3Sc3ccc(S(=O)(=O)N(C)C)cc32)CC1 [Thioproperazine]
4,6.64,CSc1ccc2c(c1)N(CCC1CCCCN1C)c1ccccc1S2=O (stereo unspecified) [Thioridazine-5-sulfoxide]
5,9.34,CSc1ccc2c(c1)N(CCC1CCCCN1C)c1ccccc1S2 (stereo unspecified) [Thioridazine]
6,8.38,CN1CCN(CCC=C2c3ccccc3Sc3ccc(S(=O)(=O)N(C)C)cc32)CC1 [Thiothixene]
7,8.43,Cc1ccsc1C(=CCCN1CCCC(C(=O)O)C1)c1sccc1C (stereo unspecified) [Tiagabine]
8,7.71,C=CC1(C)CC(OC(=O)CSCCN(CC)CC)C2(C)C(C)CCC3(CCC(=O)C32)C(C)C1O (stereo unspecified) [Tiamulin]
9,3.41,CCN(CC)CCNC(=O)c1cc(S(C)(=O)=O)ccc1OC [Tiapride]
10,11.3,CCCSc1nc(NC2CC2c2ccc(F)c(F)c2)c2nnn(C3CC(OCCO)C(O)C3O)c2n1 (stereo unspecified) [Ticagrelor]
11,9.25,Clc1ccccc1CN1CCc2sccc2C1 [Ticlopidine]
12,5.06,C[N+]1(CCC(O)(c2ccccc2)c2cccs2)CCOCC1 (stereo unspecified) [Tiemonium]
13,6.69,CCC1OC(=O)CC(O)C(C)C(OC2OC(C)C(O)C(N(C)C)C2O)C(CCN2CC(C)CC(C)C2)CC(C)C(=O)C=CC(C)=CC1COC1OC(C)C(O)C(OC)C1OC (stereo unspecified) [Tilmicosin]
14,4.88,CC(C)(C)NCC(O)COc1nsnc1N1CCOCC1 (stereo unspecified) [Timolol]
15,3.86,CCS(=O)(=O)CCn1c([N+](=O)[O-])cnc1C [Tinidazole]
16,12.8,CCC(C)N(C(=O)SCc1ccccc1)C(C)CC (stereo unspecified) [Tiocarbazil]
17,13,CC(C)CCOc1ccc(NC(=S)Nc2ccc(OCCC(C)C)cc2)cc1 [Tiocarlide]
18,3.64,Clc1ccc2nsnc2c1NC1=NCCN1 [Tizanidine]
19,8.09,Cc1ccc(S(=O)(=O)NC(=O)NN2CCCCCC2)cc1 [Tolazamide]
20,3.28,c1ccc(CC2=NCCN2)cc1 [Tolazoline]
21,7.68,CCCCNC(=O)NS(=O)(=O)c1ccc(C)cc1 [Tolbutamide]
22,11.9,Cc1c(Cl)cccc1Nc1ccccc1C(=O)O [Tolfenamic acid]
23,5.29,Cc1cccc(OCC(O)CNC(C)C)c1 (stereo unspecified) [Toliprolol]
24,7.89,Cc1ccc(C(=O)c2ccc(CC(=O)O)n2C)cc1 [Tolmetin]
25,12.2,Cc1cccc(N(C)C(=S)Oc2ccc3ccccc3c2)c1 [Tolnaftate]
26,7.47,Cc1ccc(C(CCN(C)C)c2ccccc2)cc1 (stereo unspecified) [Tolpropamine]

row,LC retention time [min],Structure (SMILES)
1,4.59,CCN(CC)CC(=O)Nc1c(C)cccc1C(=O)OC [Tolycaine]
2,6.08,CC1(C)OC2COC3(COS(N)(=O)=O)OC(C)(C)OC3C2O1 (stereo unspecified) [Topiramate]
3,6.67,Cc1cccc(Nc2ccncc2S(=O)(=O)NC(=O)NC(C)C)c1 [Torasemide]
4,10.5,CN(C)CCOc1ccc(C(=C(CCCl)c2ccccc2)c2ccccc2)cc1 [Toremifene]
5,13.6,CC1(C)C(C(=O)OC(C#N)c2cccc(Oc3ccccc3)c2)C1C(Br)C(Br)(Br)Br (stereo unspecified) [Tralomethrin]
6,9.55,CCOC(=O)C(CCc1ccccc1)NC(C)C(=O)N1C(C(=O)O)CC2CCCCC21 (stereo unspecified) [Trandolapril]
7,1.79,NCC1CCC(C(=O)O)CC1 (stereo unspecified) [Tranexamic acid]
8,6.48,O=c1n(CCCN2CCN(c3cccc(Cl)c3)CC2)nc2ccccn12 [Trazodone]
9,8.69,CC1(C)OC2CC3C4CCC5=CC(=O)C=CC5(C)C4(F)C(O)CC3(C)C2(C(=O)CO)O1 (stereo unspecified) [Triamcinolone acetonide]
10,4.68,Nc1nc(N)c2nc(-c3ccccc3)c(N)nc2n1 [Triamterene]
11,6.6,COc1nc(C)nc(NC(=O)NS(=O)(=O)c2ccccc2OCCCl)n1 [Triasulfuron]
12,6.38,CCOC(=O)CSc1nc(C(C)(C)C)nn1C(=O)N(C)C [Triazamate]
13,8.37,[O-][n+]1nc(-n2ccnc2)nc2ccc(Cl)cc21 [Triazoxide]
14,5.28,CCCCN(CCCC)CCCC [Tributylamine]
15,12,CSc1nc2cc(Oc3cccc(Cl)c3Cl)c(Cl)cc2[nH]1 [Triclabendazole]
16,12,O=C(Nc1ccc(Cl)cc1)Nc1ccc(Cl)c(Cl)c1 [Triclocarban]
17,10.4,COC(=O)COc1nc(Cl)c(Cl)cc1Cl [Triclopyr-methylester]
18,10.2,CCNc1nc(Cl)nc(N(CC)CC)n1 [Trietazine]
19,6.94,CCOC(=O)CC(O)(CC(=O)OCC)C(=O)OCC [Triethylcitrate]
20,10.2,CN1CCN(CCCN2c3ccccc3Sc3ccc(C(F)(F)F)cc32)CC1 [Trifluoperazine]
21,7.42,O=C(CCCN1CCC(O)(c2cccc(C(F)(F)F)c2)CC1)c1ccc(F)cc1 [Trifluperidol]
22,9.27,CN(C)CCCN1c2ccccc2Sc2ccc(C(F)(F)F)cc21 [Triflupromazine]
23,9.22,COC(=O)c1cccc(C)c1S(=O)(=O)NC(=O)Nc1nc(OCC(F)(F)F)nc(N(C)C)n1 [Triflusulfuron-methyl]
24,4.28,COCCOCCOCCOC [Triglyme]
25,7.86,OC(CCN1CCCCC1)(c1ccccc1)C1CCCCC1 (stereo unspecified) [Trihexyphenidyl. Benzhexol]

row,Structure (SMILES),LC retention time [min]
1,CSC(C)=NOC(=O)N(C)SN(C)C(=O)ON=C(C)SC [Thiodicarb],7.64
2,CNC(=O)ON=C(CSC)C(C)(C)C [Thiofanox],7.8
3,CCSCCSP(=S)(OC)OC [Thiometon],10.2
4,CCOP(=S)(OCC)Oc1cnccn1 [Thionazin (Zinophos)],8.35
5,CCOC(=O)NC(=S)Nc1ccccc1NC(=S)NC(=O)OCC [Thiophanate-ethyl],8.61
6,COC(=O)NC(=S)Nc1ccccc1NC(=S)NC(=O)OC [Thiophanate-methyl],6.93
7,CN(C)C(=S)SSC(=S)N(C)C [Thiram (Tetramethylthiuramdisulfide.TMTD)],6.8
8,CCOC(=O)C1(c2ccccc2)CCC=CC1NC (stereo unspecified) [Tilidine-Nor],5.28
9,CCOC(=O)C1(c2ccccc2)CCC=CC1N(C)C (stereo unspecified) [Tilidine],5.1
10,CCCSP(=S)(OCC)Oc1ccc(Cl)cc1Cl (stereo unspecified) [Tokuthion (Prothiophos)],13.6
11,COP(=S)(OC)Oc1c(Cl)cc(C)cc1Cl [Tolclofos-methyl],11.4
12,CCc1nn(C)c(C(=O)NCc2ccc(Oc3ccc(C)cc3)cc2)c1Cl [Tolfenpyrad],12.4
13,Cc1ccc(N(SC(F)(Cl)Cl)S(=O)(=O)N(C)C)cc1 [Tolyfluanid],10.8
14,COc1cccc(C2(O)CCCCC2CN)c1 (stereo unspecified) [Tramadol-N-bisdesmethyl (dinor-tramadol)],5.19
15,COc1cccc(C2(O)CCCCC2C[N+](C)(C)[O-])c1 (stereo unspecified) [Tramadol-N-oxide],5.24
16,CNCC1CCCCC1(O)c1cccc(OC)c1 (stereo unspecified) [Tramadol-Nor (Tramadol-N-desmethyl)],5.3
17,NC1CC1c1ccccc1 (stereo unspecified) [Tranylcypromine],4.27
18,CC12C=CC3=C4CCC(=O)C=C4CCC3C1CCC2O (stereo unspecified) [Trenbolone],8.89

row,Structure (SMILES),LC retention time [min]
1,CC(C)(C)C(=O)C(Oc1ccc(Cl)cc1)n1cncn1 (stereo unspecified) [Triadimefon],9.68
2,CC(C)(C)C(O)C(Oc1ccc(Cl)cc1)n1cncn1 (stereo unspecified) [Triadimenol],9.93
3,CC(C)N(C(=O)SCC(Cl)=C(Cl)Cl)C(C)C [Triallate],12.7
4,OCc1nnc2n1-c1ccc(Cl)cc1C(c1ccccc1Cl)=NC2 [Triazolam-1-Hydroxymethyl (alpha-Hydroxy-Triazolam)],7.65
5,Cc1nnc2n1-c1ccc(Cl)cc1C(c1ccccc1Cl)=NC2 [Triazolam],8.05
6,COC(=O)c1ccccc1S(=O)(=O)NC(=O)N(C)c1nc(C)nc(OC)n1 [Tribenuron-methyl],7.94
7,CCCCSP(=O)(SCCCC)SCCCC [Tribufos (Merphos oxide. DEF)],13.4
8,COP(=O)(OC)C(O)C(Cl)(Cl)Cl (stereo unspecified) [Trichlorfon (Dylox)],5.23
9,O=C(O)COc1nc(Cl)c(Cl)cc1Cl [Triclopyr],7.85
10,Cc1cccc2sc3nncn3c12 [Tricyclazole],5.93
11,CON=C(C(=O)OC)c1ccccc1CON=C(C)c1cccc(C(F)(F)F)c1 [Trifloxystrobin],11.6
12,COc1cc(OC)nc(NC(=O)NS(=O)(=O)c2ncccc2OCC(F)(F)F)n1 [Trifloxysulfuron],8.11
13,CCCOCC(=Nc1ccc(Cl)cc1C(F)(F)F)n1ccnc1 [Triflumizole],11.8
14,O=C(NC(=O)c1ccccc1Cl)Nc1ccc(OC(F)(F)F)cc1 [Triflumuron],11.2
15,O=CNC(N1CCN(C(NC=O)C(Cl)(Cl)Cl)CC1)C(Cl)(Cl)Cl (stereo unspecified) [Triforine],8.65
16,CNC(=O)Oc1cc(C)c(C)c(C)c1.CNC(=O)Oc1cc(C)cc(C)c1C [Trimethacarb (2.3.5-)],8.4
17,CNC(=O)Oc1cc(C)c(C)c(C)c1 [Trimethacarb (3.4.5-)],8.1
